Patent publication US20190225644A1, “MRNA CAP ANALOGS AND METHODS OF MRNA CAPPING” (ModernaTX, Inc., priority 2015, published 2019)
Values joined by “and” are separate entries in the source; they are usually repeats but may differ in a detail not shown here. Identical values can stand only once. Like-named read-outs stand apart in the source and are kept apart here.

Columns and labels:
HeLa Lysate [1] = assay: Cap competition assay in kinetic cell free in vitro translation (free cap analogs); format: biochemical; conditions: free cap analog 0-100 uM against Cap1-tipped eGFP modRNA, fluorescence plateau
Protocol: (§1) The in vitro translation assay was conducted with the HeLa 1-step coupled IVT kit (ThermoFisher Scientific, Waltham, Mass.) according to the manufacturer's instructions to assess performance of new cap analogs as free compounds or as an integral part of capped mRNA. Cap analogs with affinity to eIF4E protein may reduce protein synthesis rate in cell-free translation. Further, RNAs containing such cap analogs (“Cap-modRNA”) show different potency of protein synthesis in cell-free translation.
For competition assays, the total volume of the cell-free translation reaction was increased to 27.8 uL by addition of either water or diluted free CAP analogs in water. The stock concentration of the free CAP analogs was 1 mM. With two-fold dilutions in water, the concentration was reduced sequentially. […] The CAP analogs used in this study were either commercial products serving as reference material (TriLink, San Diego, Calif.) or compounds disclosed herein. It is hypothesized that the small molecule cap analogs interfere with the assembly of the “closed loop” in a Kd-dependent fashion.
After the fluorescent signal in cell-free translation reaction reached a stable plateau, absolute values thereof were transferred to a statistical analysis program (GraphPad Software, La Jolla, Calif.) and curve fitting or IC50 calculations were derived with settings according to the instructions of the manufacturer.
The results from the cap competition assays are illustrated in FIGS. 1A-1C and 2A-2D. In this study, each of the modRNAs used comprises 1-methyl-pseudouridine, which replaces each uridine in the RNA sequence and 5-methyl cytidine, which replaces each cytidine in the RNA sequence. Further, Table 11 includes the IC50 values of certain compounds of the disclosure.

eIF4E [2] = biological target: T1, eIF4E (Homo sapiens, UniProt P06730)
eIF4E [3] = biological target: T1, eIF4E; assay: biochemical
eIF4E [4] = biological target: T1, eIF4E; assay: Binding affinities to eIF4E using surface plasmon resonance (SPR); conditions: for koff: read-out: koff (s^−1)
HeLa Lysate [5] = assay: Cell free translation assay, mCitrine mRNA carrying the cap analogs; format: biochemical; conditions: 5-methoxy uridine modRNA
Protocol: as §1
The modified RNAs (“modRNAs”) of eGFP and mCitrine-degron, harboring chemical modifications on either the CAP structures, selected ribose units and/or the bases, were diluted in sterile nuclease-free water to a final amount of 500 ng in 5 uL. This volume was added to 20 uL of freshly prepared HeLa Lysate. The in vitro translation reaction was done in a standard 96-well round bottom plate (Corning, Corning, N.Y.), covered with an self-adhesive fluorescence-compatible seal (BioRad, Hercules, Calif.) at 30° C. inside the plate reader Cytation 3 (BioTek, Winooski, Vt.).
The fluorescent signal per reaction increased over time and is considered proportional to the occurring protein synthesis. Each cell-free translation reaction was monitored for 120-180 min with the following settings: eGFP protein—ex. 485 nm, em. […] 545, gain 70 or 80. The height of the reading head was set to 1 mm above the plate and a reading speed of one per sample every 17 seconds. The results of modRNAs with various caps are illustrated in FIGS. 3A-3B.
(§2) Cell free translation assays were also conducted using modRNAs comprises 5-methoxy uridine, which replaces each uridine in the RNA sequence, except otherwise specified. The results are shown in FIGS. 5A-5B and 6A-6B, and Tables 12 and 13. Table 12 discloses the measured mCitrine levels after 3 hours of a cell-free translation assay.

HeLa Lysate [6] = assay: Cell free translation assay, hEPO mRNA carrying the cap analogs; format: biochemical; conditions: 5-methoxy uridine modRNA
Protocol: In FIG. 5A, “mod mRNA” refers to a modified mRNA comprising N1-methyl pseudouridine, which replaces each uridine in the RNA sequence. FIG. 5 B presents the results of a cell free translation assay using mRNAs carrying different cap analogs, normalized to capping and concentration of each capped mRNA (see also Table 13).
as §1, §2
Table 13 discloses the hEPO levels after 3 hours of a cell-free translation assay.

T7 RNA Polymerase = T7 RNA Polymerase (Escherichia phage T7, UniProt P00573); assay: Cotranscriptional capping of hEPO mRNA by in vitro transcription (capping fraction); format: biochemical; conditions: hEPO mRNA used in the in vivo assay
[7] = residence time as listed in Table 13
[8] = residence time as listed in Table 12

T1 sequence (P06730 32-217): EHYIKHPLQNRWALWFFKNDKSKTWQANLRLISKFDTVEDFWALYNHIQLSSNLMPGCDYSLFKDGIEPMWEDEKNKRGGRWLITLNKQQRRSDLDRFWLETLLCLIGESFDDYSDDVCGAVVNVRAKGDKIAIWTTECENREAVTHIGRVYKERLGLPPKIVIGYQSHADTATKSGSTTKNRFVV
Sequence of T7 RNA Polymerase (P00573 whole entry): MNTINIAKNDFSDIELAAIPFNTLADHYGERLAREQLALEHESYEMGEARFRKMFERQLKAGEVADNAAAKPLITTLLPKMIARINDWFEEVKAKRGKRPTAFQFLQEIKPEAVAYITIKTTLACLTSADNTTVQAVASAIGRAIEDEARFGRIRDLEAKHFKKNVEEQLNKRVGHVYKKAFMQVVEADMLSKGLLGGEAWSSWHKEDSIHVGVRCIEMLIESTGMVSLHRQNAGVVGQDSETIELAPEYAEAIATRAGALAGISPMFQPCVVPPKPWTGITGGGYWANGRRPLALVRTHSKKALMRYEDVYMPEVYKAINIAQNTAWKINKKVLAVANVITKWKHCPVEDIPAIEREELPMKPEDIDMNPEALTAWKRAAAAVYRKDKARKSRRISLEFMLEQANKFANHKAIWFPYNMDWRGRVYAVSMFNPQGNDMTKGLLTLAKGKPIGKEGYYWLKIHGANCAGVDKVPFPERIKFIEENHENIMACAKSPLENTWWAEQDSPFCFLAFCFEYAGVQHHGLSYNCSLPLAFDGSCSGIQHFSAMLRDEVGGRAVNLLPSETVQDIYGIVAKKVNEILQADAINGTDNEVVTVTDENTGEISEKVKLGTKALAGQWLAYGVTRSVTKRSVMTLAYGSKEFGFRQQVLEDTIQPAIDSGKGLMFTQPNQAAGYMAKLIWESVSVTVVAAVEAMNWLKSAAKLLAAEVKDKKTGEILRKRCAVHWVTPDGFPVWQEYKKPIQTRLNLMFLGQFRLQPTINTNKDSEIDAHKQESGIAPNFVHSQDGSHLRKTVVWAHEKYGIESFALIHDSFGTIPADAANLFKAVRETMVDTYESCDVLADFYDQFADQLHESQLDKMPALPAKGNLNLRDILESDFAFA

Row | SMILES | IC50 (HeLa Lysate [1]) [µM] | koff (eIF4E [2]) [s⁻¹] | Kd (eIF4E [3]) | further results
1 | BP(=O)(OP(=O)([O-])OC[C@H]1O[C@@H](n2c[n+](CCOc3ccc(Cl)cc3)c3c(=O)[nH]c(N)nc32)[C@H](OC)[C@@H]1O)OP(=O)(O)OC[C@H]1O[C@@H](n2cnc3c(=O)[nH]c(N)nc32)[C@H](O)[C@@H]1O (stereo partly shown) [Compound 005-2] |  |  | 0.1 µM | τ (eIF4E [4]): 83.33 s; koff (eIF4E [4]): 0.012 s⁻¹
2 | BP(=O)(OP(=O)([O-])OC[C@H]1O[C@@H](n2c[n+](C)c3c(=O)[nH]c(N)nc32)[C@H](O)[C@@H]1O)OP(=O)([O-])OC[C@H]1O[C@@H](n2c[n+](C)c3c(=O)[nH]c(N)nc32)[C@H](O)[C@@H]1O [Compound 005-4] | 5 |  | 0.7 to 1 µM and 1 µM | Ave norm (mCitrine levels after 3 hours of a cell-free translation assay) (HeLa Lysate [5]): 0.24; τ (eIF4E [4]): 4.17 s and 4.2 s; koff (eIF4E [4]): 0.24 s⁻¹
3 | C[n+]1cn([C@@H]2O[C@H](COP(=O)(O)OP(=O)([O-])OP(=O)([O-])OP(=O)(O)OC[C@H]3O[C@@H](n4c[n+](C)c5c(=O)[nH]c(N)nc54)[C@H](O)[C@@H]3O)[C@@H](O)[C@H]2O)c2nc(N)[nH]c(=O)c21 [Compound 005-9] | 9 | 0.41 | 1.1 µM and 1 µM | 
4 | C[n+]1cn([C@@H]2O[C@H](COP(=O)([O-])OP(=O)([O-])OP(=O)(O)OC[C@H]3O[C@@H](n4c[n+](C)c5c(=O)[nH]c(N)nc54)[C@H](O)[C@@H]3O)[C@@H](O)[C@H]2O)c2nc(N)[nH]c(=O)c21 [Compound 005-10] | 14 | 0.26 | 2.7 µM and 3 µM | CFT (norm to conc. & capping & cap1), hEPO levels after 3 hours of a cell-free translation assay (HeLa Lysate [6]): 0.83; capping %/100 (T7 RNA Polymerase): 0.91 %/100; τ (eIF4E [4]; [7]): 3.8 s
5 | BP(=O)(OP(=O)([O-])OC[C@H]1O[C@@H](n2c[n+](C)c3c(=O)[nH]c(N)nc32)[C@H](O)[C@@H]1O)OP(=O)(O)OC[C@H]1O[C@@H](n2cnc3c(=O)[nH]c(N)nc32)[C@H](O)[C@@H]1O (stereo partly shown) [Compound 005-32] |  |  | 0.33 µM | τ (eIF4E [4]): 9.09 s; koff (eIF4E [4]): 0.11 s⁻¹
6 | Nc1nc2c(ncn2[C@@H]2O[C@H](COP(=O)(O)OP(=O)([O-])OP(=O)(O)OC[C@H]3O[C@@H](n4c[n+](CCOc5ccc(Cl)cc5)c5c(=O)[nH]c(N)nc54)[C@@H](O)[C@@H]3O)[C@@H](O)[C@H]2O)c(=O)[nH]1 [Compound 005-35] |  |  |  | CFT (norm to conc. & capping & cap1), hEPO levels after 3 hours of a cell-free translation assay (HeLa Lysate [6]): 1.02; capping %/100 (T7 RNA Polymerase): 1 %/100; τ (eIF4E [4]; [7]): 9.1 s
7 | COc1ccc(CN2CC(COP(=O)([O-])OP(=O)(O)OP(=O)(O)OCC3OC(n4cnc5c(=O)[nH]c(N)nc54)C(O)C3O)OC(n3c[n+](C)c4c(=O)[nH]c(N)nc43)C2)cc1 (stereo not shown) [Compound 006-26] |  |  |  | Ave norm (mCitrine levels after 3 hours of a cell-free translation assay) (HeLa Lysate [5]): 0.50; τ (eIF4E [4]; [8]): 3.3 s
8 | CO[C@@H]1[C@H](O)[C@@H](COP(=O)(O)OP(=O)([O-])OP(=O)(O)OCC2CN(C)CC(n3c[n+](C)c4c(=O)[nH]c(N)nc43)O2)O[C@H]1n1cnc2c(=O)[nH]c(N)nc21 (stereo partly shown) [Compound 006-39] |  | 1.5 | 6.7 to 8.7 µM | 
9 | CO[C@@H]1[C@H](O)[C@@H](COP(=O)(O)OP(=O)([O-])OP(=O)(O)OCC2CN(Cc3ccccc3)CC(n3c[n+](C)c4c(=O)[nH]c(N)nc43)O2)O[C@H]1n1cnc2c(=O)[nH]c(N)nc21 (stereo partly shown) [Compound 006-40] |  | 0.34 | 1.7 µM | 
10 | CN(C)CCN1CC(COP(=O)(O)OP(=O)([O-])OP(=O)(O)OC[C@H]2O[C@@H](n3cnc4c(=O)[nH]c(N)nc43)[C@H](O)[C@@H]2O)OC(n2c[n+](C)c3c(=O)[nH]c(N)nc32)C1 (stereo partly shown) [Compound 006-44] |  |  |  | Ave norm (mCitrine levels after 3 hours of a cell-free translation assay) (HeLa Lysate [5]): 0.31; τ (eIF4E [4]; [8]): 0.8 s
11 | CN1CC(COP(=O)(O)OP(=O)([O-])OP(=O)(O)OC[C@H]2O[C@@H](n3cnc4c(=O)[nH]c(N)nc43)[C@H](O)[C@@H]2O)OC(n2c[n+](CCOc3ccc(Cl)cc3)c3c(=O)[nH]c(N)nc32)C1 (stereo partly shown) [Compound 006-45] |  |  |  | Ave norm (mCitrine levels after 3 hours of a cell-free translation assay) (HeLa Lysate [5]): 0.74; CFT (norm to conc. & capping & cap1), hEPO levels after 3 hours of a cell-free translation assay (HeLa Lysate [6]): 0.48; capping %/100 (T7 RNA Polymerase): 0.95 %/100; τ (eIF4E [4]; [8]): 11.6 s; τ (eIF4E [4]; [7]): 11.6 s
12 | C[n+]1cn(C2CN(Cc3ccccc3)CC(COP(=O)(O)OP(=O)([S-])OP(=O)(O)OC[C@H]3O[C@@H](n4cnc5c(=O)[nH]c(N)nc54)[C@H](O)[C@@H]3O)O2)c2nc(N)[nH]c(=O)c21 (stereo partly shown) [Compound 006-46] |  |  |  | Ave norm (mCitrine levels after 3 hours of a cell-free translation assay) (HeLa Lysate [5]): 0.77; τ (eIF4E [4]; [8]): 3.4 s

Now from value to compound, other results behind:

Row | IC50 (HeLa Lysate [1]) [µM] | koff (eIF4E [2]) [s⁻¹] | Kd (eIF4E [3]) | SMILES | further results
13 | 35 |  |  | Cn1c[n+]([C@@H]2O[C@H](COP(=O)(O)OP(=O)([O-])OP(=O)(O)OC[C@H]3O[C@@H](n4cnc5c(=O)[nH]c(N)nc54)[C@H](O)[C@@H]3O)[C@@H](O)[C@H]2O)c2nc(N)[nH]c(=O)c21 [Cap0, m7GpppG, reference compound] | 
14 | 25 | 0.08 |  | Nc1nc2c(ncn2[C@@H]2O[C@H](COP(=O)(O)OP(=O)(O)OP(=O)(O)OC[C@H]3O[C@@H](c4cn(CCOc5ccc(Cl)cc5)c5c(=O)[nH]c(N)nc45)[C@H](O)[C@@H]3O)[C@@H](O)[C@H]2O)c(=O)[nH]1 [Compound 005-1] | 
15 | 2 | 0.04 | 0.2 µM | CO[C@@H]1[C@H](O)[C@@H](COP(=O)(O)OP(=O)([O-])OP(=O)(O)OC[C@H]2O[C@@H](n3cnc4c(=O)[nH]c(N)nc43)[C@H](O)[C@@H]2O)O[C@H]1n1c[n+](CCOc2ccc(Cl)cc2)c2c(=O)[nH]c(N)nc21 [Compound 005-5] | 
16 | 92 |  |  | C[n+]1cn([C@@H]2O[C@H](COP(=O)(O)OP(=O)([O-])OP(=O)(O)OC[C@H]3O[C@@H](n4cnc5c(=O)[nH]c(N)nc54)[C@H](O)[C@@H]3O)[C@@H](O)[C@@H]2O)c2nc(N)[nH]c(=O)c21 [Compound 005-11] | 
17 | 21 | 0.9 | 4.3 µM and 4 µM | COCCO[C@H]1[C@H](O)[C@@H](COP(=O)(O)OP(=O)([O-])OP(=O)(O)OC[C@H]2O[C@@H](n3cnc4c(=O)[nH]c(N)nc43)[C@H](O)[C@@H]2O)O[C@H]1n1c[n+](C)c2c(=O)[nH]c(N)nc21 [Compound 005-12] | 
18 | 318 |  | 218 µM | C=CCn1c(=O)n([C@@H]2O[C@H](COP(=O)(O)OP(=O)(O)OP(=O)(O)OC[C@H]3O[C@@H](n4cnc5c(=O)[nH]c(N)nc54)[C@H](O)[C@@H]3O)[C@H]3OC(C)(C)O[C@@H]32)c2nc(N)[nH]c(=O)c21 [Compound 005-13] | 
19 | 48 | 1.7 | 6.4 µM and 4 µM | CO[C@@H]1[C@H](O)[C@@H](COP(=O)(O)OP(=O)([O-])OP(=O)(O)OC[C@H]2O[C@@H](n3cnc4c(=O)[nH]c(N)nc43)[C@H](O)[C@@H]2O)O[C@H]1n1c[n+](C)c2c(=O)[nH]c(N)nc21 [Compound 005-14] | 
20 | 33 | 0.6 | 8 to 9 µM and 9 µM | C[n+]1cn([C@H]2CN(CCO)C[C@@H](COP(=O)([O-])OP(=O)(O)OP(=O)(O)OC[C@H]3O[C@@H](n4cnc5c(=O)[nH]c(N)nc54)[C@H](O)[C@@H]3O)O2)c2nc(N)[nH]c(=O)c21 [Compound 006-3] | 
21 | 179 | 1 | 11 µM | C[n+]1cn([C@@H]2O[C@H](COP(=O)(O)OP(=O)(O)OP(=O)(O)OC[C@H]3O[C@@H](n4cnc5c(=O)[nH]c(N)nc54)[C@H](O)[C@@H]3O)[C@@H](O)[C@@]2(C)O)c2nc(N)[nH]c(=O)c21 [Compound 007-1] | 
22 |  | 0.057 | 0.1 µM | C[C@@]1(O)[C@H](O)[C@@H](COP(=O)(O)OP(=O)(O)OP(=O)(O)OC[C@H]2O[C@@H](n3cnc4c(=O)[nH]c(N)nc43)[C@H](O)[C@@H]2O)O[C@H]1n1c[n+](CCOc2ccc(Cl)cc2)c2c(=O)[nH]c(N)nc21 [Compound 007-37] | 
